The source of these data is patent US20230303570A1, “KINASE INHIBITORS AND USES THEREOF” (ABM Therapeutics Corporation, priority 2020, published 2023).

Some results are limits rather than exact numbers.

The target in one series is HPK1 (MAP4K1) (Homo sapiens, UniProt Q92918). Put plainly: HPK1 (MAP4K1) kinase Lantha screen assay. It is filed as biochemical. The gist of the method:
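Recombinant MAP4K1 preincubated 10 min with compound (6-point dilution, duplicates) in 50 mM HEPES pH 7.5, 10 mM MgCl2, then reacted with Fluorescein-PKC substrate and ATP for 90 min at room temperature. Antibody detection solution stopped reaction; after 60 min, TR-FRET read at ex 340 nm, em 520/495 nm.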

Another series addresses RET (Homo sapiens, UniProt P07949). Put plainly: RET kinase mobility shift assay. It is filed as biochemical. On the procedure:
(§1) The effect of the compounds on the activity of cKit, RET and AXL kinases were assessed by Mobility shift assay. • 1. 1× kinase base buffer and stop buffer for testing kinases were prepared • 1-1) 1× Kinase base buffer (50 mM HEPES, pH 7.5, 0.01% Triton X-100) • 1-2) Stop buffer (100 mM HEPES, pH 7.5, 0.015% Brij-35, 0.2% Coating Reagent #3, 50 mM EDTA) • 2. Compound and assay plate preparation: the compound was diluted to 50× of the final desired highest inhibitor concentration in reaction by 100% DMSO. 100 μl of this compound dilution was transferred to a well in a 96-well plate. For example, if the highest desired concentration was 5 μM, then 250 μM of compound DMSO solution was prepared in this step. For all compounds, the compound was serially diluted by transferring 10 μl to 70 μl of 100 DMSO in the next well and so forth for a total of 5 concentrations. 100 μl of 100% DMSO was added to two empty wells for no compound control and no enzyme control in the same 96-well plate. The plate was labeled as source plate. The intermediate plate was prepared by transferring 10 μl of compound from source plate to a new 96-well plate as the intermediate plate, adding 90 μl of 1× kinase buffer to each well of the intermediate plate, mixing the compounds in intermediate plate for 10 min on shaker. 5 μl of each well from the 96-well intermediate plate were transferred to a 384-well plate in duplicates. For example, A1 of the 96-well plate was transferred to A1 and A2 of the 384-well plate. A2 of the 96-well plate was transferred to A3 and A4 of the 384-well plate, and so on. • 4. Kinase reaction: The assay plate already contained 5 μl of compound in 10% DMSO. A 2.5× enzyme solution was prepared by adding kinases (cKit, RET, or AXL) and DTT in 1× kinase base buffer. 2.5× enzyme solution was transferred to the assay plate (by adding 10 μl of 2.5× enzyme solution to each well of the 384-well assay plate). The plate was incubated at room temperature for 10 min. 2.5× peptide solution was prepared by adding FAM-labeled peptide, ATP, MgCl2 in the 1× kinase base buffer. 2.5× peptide solution was added to the assay plate by adding 10 μl of 2.5× peptide solution to each well of the 384-well assay plate. The plate was incubated at 28° C. for the specified period of time. 25 μl of stop buffer was added to stop reaction. Data was collected on Caliper.

The target in the next series is T1, Axl (Homo sapiens, UniProt P30530).
T1 sequence (P30530 26-894): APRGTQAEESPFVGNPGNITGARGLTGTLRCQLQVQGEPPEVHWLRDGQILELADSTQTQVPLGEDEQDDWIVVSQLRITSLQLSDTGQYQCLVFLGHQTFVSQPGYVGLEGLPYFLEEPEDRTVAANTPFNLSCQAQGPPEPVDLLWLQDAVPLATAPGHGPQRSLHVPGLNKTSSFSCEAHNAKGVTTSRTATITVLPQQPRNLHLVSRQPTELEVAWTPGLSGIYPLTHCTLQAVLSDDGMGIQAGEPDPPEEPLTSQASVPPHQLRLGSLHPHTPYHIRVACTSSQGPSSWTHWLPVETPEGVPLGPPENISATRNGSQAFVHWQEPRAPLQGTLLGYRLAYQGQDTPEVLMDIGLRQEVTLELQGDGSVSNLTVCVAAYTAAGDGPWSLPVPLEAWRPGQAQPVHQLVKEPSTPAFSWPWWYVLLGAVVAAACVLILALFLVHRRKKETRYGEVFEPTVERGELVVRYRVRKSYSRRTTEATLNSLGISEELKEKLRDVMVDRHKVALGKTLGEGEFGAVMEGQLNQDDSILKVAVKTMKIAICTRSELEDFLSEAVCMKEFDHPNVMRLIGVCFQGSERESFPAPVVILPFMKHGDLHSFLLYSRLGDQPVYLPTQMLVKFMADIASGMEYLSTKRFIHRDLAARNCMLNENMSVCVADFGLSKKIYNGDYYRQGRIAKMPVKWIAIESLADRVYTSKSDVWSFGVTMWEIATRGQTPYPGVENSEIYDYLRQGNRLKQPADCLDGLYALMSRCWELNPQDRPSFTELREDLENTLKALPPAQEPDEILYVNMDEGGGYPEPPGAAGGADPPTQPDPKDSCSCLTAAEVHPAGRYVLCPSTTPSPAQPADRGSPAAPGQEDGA
The series can be described thus: AXL kinase mobility shift assay. Type of series: biochemical. On the procedure: as §1

The target in another series is c-Kit (Homo sapiens, UniProt P10721). The series can be described thus: cKit kinase mobility shift assay. It is filed as biochemical. The gist of the method:
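Human kinase with DTT in 50 mM HEPES pH 7.5 and 0.01% Triton X-100 was preincubated with compound for 10 min at room temperature, using a 5-point dilution in duplicate. FAM-labeled peptide, ATP and MgCl2 were then added and the reaction run at 28° C. Reactions were stopped with EDTA buffer and peptide conversion was read by Caliper mobility shift.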

Series [1] addresses T2, PAK1 (Homo sapiens, UniProt Q13153). The series can be described thus: In vitro kinase assay, PAK1 (Caliper EZ Reader conversion). Type of series: biochemical. Also on record: purchased Carna Biosciences. Put shortly:
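Human PAK1 was preincubated with compound (6 concentrations, 4-fold dilutions) for 10 min at room temperature, then reacted with substrate mix for 30 and 60 min. Substrate conversion was read by Caliper mobility shift. IC50 was fitted by variable-slope log(inhibitor)–response, normalised to FRAX597 and buffer controls.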

The target in series [2] is T2, PAK1. The following applies: background statement on known PAK1 inhibitors; result in words only; cited from earlier work.
The subject of another series is P-glycoprotein (MDR1). The series can be described thus: in vitro. As to conditions: dog, MDCK-MDR1.

Chain of HPK1 (MAP4K1) (Q92918 whole entry, species assumed): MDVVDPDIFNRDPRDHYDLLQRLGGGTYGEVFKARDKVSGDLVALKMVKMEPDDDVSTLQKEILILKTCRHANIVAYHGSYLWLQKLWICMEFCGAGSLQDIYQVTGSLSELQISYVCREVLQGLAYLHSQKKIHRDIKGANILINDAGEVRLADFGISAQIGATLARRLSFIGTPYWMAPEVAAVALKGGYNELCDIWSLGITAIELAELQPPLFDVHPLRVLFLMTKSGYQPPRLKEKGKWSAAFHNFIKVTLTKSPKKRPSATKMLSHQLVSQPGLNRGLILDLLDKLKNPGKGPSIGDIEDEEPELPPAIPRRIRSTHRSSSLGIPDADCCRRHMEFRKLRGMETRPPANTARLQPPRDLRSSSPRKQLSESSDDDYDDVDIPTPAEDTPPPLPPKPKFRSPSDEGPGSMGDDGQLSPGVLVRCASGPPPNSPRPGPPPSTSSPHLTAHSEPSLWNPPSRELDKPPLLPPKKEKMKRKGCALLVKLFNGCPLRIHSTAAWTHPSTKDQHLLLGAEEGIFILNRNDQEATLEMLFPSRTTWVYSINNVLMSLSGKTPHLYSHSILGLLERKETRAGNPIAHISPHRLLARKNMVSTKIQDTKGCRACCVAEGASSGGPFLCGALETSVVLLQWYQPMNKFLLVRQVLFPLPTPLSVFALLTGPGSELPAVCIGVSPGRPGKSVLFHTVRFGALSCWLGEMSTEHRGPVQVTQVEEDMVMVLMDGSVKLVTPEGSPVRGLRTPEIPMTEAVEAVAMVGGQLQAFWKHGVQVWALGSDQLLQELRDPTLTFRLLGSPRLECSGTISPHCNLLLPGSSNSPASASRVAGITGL
Chain of c-Kit (P10721 26-976): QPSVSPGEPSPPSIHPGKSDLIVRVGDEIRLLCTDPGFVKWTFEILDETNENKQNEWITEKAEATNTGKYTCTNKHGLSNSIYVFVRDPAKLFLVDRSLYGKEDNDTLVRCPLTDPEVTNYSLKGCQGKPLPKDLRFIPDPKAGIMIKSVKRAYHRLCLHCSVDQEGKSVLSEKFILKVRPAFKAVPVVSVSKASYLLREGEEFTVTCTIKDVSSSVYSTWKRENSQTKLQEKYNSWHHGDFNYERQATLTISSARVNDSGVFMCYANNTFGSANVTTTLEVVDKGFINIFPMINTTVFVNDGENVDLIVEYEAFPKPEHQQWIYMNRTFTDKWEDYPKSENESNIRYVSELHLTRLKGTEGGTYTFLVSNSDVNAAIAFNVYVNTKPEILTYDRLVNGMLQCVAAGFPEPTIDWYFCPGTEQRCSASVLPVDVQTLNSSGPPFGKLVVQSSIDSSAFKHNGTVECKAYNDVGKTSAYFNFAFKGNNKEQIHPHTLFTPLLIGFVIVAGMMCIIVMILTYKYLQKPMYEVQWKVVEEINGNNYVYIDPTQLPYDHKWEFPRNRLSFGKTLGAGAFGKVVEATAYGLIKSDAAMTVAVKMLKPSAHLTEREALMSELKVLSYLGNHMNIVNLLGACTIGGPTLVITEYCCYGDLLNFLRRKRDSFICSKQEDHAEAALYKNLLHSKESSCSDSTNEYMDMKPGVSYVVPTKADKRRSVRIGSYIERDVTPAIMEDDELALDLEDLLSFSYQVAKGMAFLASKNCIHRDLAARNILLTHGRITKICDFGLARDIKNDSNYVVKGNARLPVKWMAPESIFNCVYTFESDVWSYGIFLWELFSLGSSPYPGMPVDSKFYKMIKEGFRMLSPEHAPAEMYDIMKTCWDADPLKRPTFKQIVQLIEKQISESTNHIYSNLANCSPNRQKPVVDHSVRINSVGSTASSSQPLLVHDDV
Chain of RET (P07949 29-1114, species assumed): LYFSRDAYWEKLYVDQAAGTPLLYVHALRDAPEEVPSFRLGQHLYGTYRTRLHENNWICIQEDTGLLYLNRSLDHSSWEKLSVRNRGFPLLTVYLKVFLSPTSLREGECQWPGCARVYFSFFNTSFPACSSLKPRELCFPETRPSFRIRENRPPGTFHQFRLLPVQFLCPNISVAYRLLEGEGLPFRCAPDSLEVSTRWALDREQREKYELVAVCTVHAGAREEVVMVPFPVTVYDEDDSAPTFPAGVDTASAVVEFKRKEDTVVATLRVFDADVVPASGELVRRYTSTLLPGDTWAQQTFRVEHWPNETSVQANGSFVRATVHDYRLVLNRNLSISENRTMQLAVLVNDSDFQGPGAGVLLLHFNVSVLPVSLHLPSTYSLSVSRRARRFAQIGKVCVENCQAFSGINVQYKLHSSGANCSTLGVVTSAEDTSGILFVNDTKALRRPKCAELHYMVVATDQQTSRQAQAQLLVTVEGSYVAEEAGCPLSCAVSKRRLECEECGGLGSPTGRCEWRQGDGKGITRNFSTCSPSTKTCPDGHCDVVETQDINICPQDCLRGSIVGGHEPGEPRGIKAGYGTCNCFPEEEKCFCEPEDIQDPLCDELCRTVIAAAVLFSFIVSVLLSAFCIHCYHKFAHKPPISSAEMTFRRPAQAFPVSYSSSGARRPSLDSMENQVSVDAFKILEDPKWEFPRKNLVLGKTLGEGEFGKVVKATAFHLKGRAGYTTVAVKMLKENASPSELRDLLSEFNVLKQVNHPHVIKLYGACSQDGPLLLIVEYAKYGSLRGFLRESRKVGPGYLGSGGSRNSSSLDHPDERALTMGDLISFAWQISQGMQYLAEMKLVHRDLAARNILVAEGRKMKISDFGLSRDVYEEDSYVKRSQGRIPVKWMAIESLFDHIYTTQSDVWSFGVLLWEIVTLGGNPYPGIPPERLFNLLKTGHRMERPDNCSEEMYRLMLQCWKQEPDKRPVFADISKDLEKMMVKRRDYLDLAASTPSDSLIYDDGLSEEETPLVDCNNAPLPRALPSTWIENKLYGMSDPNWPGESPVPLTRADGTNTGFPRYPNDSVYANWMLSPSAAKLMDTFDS
T2 sequence (Q13153 whole entry): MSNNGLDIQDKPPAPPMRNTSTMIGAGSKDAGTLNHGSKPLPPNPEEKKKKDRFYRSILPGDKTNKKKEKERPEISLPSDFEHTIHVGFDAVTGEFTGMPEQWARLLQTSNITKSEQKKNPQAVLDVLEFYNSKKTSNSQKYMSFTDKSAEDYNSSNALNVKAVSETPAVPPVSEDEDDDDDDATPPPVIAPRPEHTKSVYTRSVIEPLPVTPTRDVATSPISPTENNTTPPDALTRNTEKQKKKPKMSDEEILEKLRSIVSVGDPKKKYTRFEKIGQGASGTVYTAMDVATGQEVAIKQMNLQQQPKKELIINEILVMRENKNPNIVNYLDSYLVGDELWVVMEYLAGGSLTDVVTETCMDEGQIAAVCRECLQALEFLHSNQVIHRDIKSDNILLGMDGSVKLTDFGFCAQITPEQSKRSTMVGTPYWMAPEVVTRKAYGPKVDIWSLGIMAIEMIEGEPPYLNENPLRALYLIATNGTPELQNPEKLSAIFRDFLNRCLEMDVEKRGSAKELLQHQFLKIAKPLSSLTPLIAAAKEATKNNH

As to `CNc1ncc2c(n1)N1CCN=C1C(c1cc(NC(=O)C3(C(=O)Nc4ccc(F)cc4)CC3)ccc1F)=C2` [Compound 341, N-(4-fluoro-3-(2-(methylamino)-8,9-dihydroimidazo[1′,2′:1,6]pyrido[2,3-d]pyrimidin-6-yl)phenyl)-N-(4-fluorophenyl)cyclopropane-1,1-dicarboxamide], the results for the concentration for half-maximal inhibition (IC50) against HPK1 (MAP4K1), on RET and at Axl were < 100 nM, 100 to 10000 nM and > 10 µM, respectively.

Consider `CNc1ncc2c(n1)N1CCN=C1C(c1cc(NC(=O)c3cc(C(F)(F)F)ccn3)ccc1C)=C2` [Compound 107, N-(4-methyl-3-(2-(methylamino)-8,9-dihydroimidazo[1′,2′:1,6]pyrido[2,3-d]pyrimidin-6-yl)phenyl)-4-(trifluoromethyl)picolinamide], for which the IC50 – broadly, the midpoint of a concentration-inhibition curve – on HPK1 (MAP4K1) was 100 to 10000 nM; at c-Kit it was < 100 nM; on RET it was < 100 nM; against PAK1 [1], > 10 µM.

For the molecule `CNc1ncc2cc(-c3ccc(-c4cccc(C)n4)cc3Cl)c(=O)n(C[C@H]3OC[C@H](N)CO3)c2n1` [Compound G-5555], the “inhibition of the PAK1 enzyme” value at PAK1 [2] is “potent PAK1 inhibitors”.

Regarding `CNc1ncc2c(n1)N1CCN=C1C(c1cc(NC(=O)c3cc(C(F)(F)F)ccn3)ccc1Cl)=C2` [Compound 136, N-(4-chloro-3-(2-(methylamino)-8,9-dihydroimidazo[1′,2′:1,6]pyrido[2,3-d]pyrimidin-6-yl)phenyl)-4-(trifluoromethyl)picolinamide], the IC50 against HPK1 (MAP4K1) was 100 to 10000 nM; at c-Kit it was < 100 nM; at RET, < 100 nM.

For the molecule `Cc1ccc(NC(=O)c2cc(C(F)(F)F)ccn2)cc1C1=Cc2cnc(NC3CCOCC3)nc2N2CCN=C12` [Compound 115, N-(4-methyl-3-(2-((tetrahydro-2H-pyran-4-yl)amino)-8,9-dihydroimidazo[1′,2′:1,6]pyrido[2,3-d]pyrimidin-6-yl)phenyl)-4-(trifluoromethyl)picolinamide hydrogen chloride], at HPK1 (MAP4K1), the IC50 was < 100 nM. The IC50 on c-Kit is < 100 nM. For the same molecule, in the series on P-glycoprotein (MDR1), the Papp A→B (in general, the apparent permeability from the apical to the basolateral side of a cell layer) at 120 min was determined as 22.8 ×10⁻⁶ cm/s; the Papp B→A (as a rule, how fast a substance crosses the layer from the basolateral side) at 120 min was determined as 36.9 ×10⁻⁶ cm/s; the efflux ratio – broadly, a quotient of directional permeabilities that is used to spot active efflux – at 120 min was 1.6.

As for `CNc1ncc2c(n1)N1CCN=C1C(c1ccc(NC(=O)C3(C(=O)Nc4ccc(F)cc4)CC3)cc1F)=C2` [Compound 340, N-(3-fluoro-4-(2-(methylamino)-8,9-dihydroimidazo[1′,2′:1,6]pyrido[2,3-d]pyrimidin-6-yl)phenyl)-N-(4-fluorophenyl)cyclopropane-1,1-dicarboxamide], the figures for the IC50 on HPK1 (MAP4K1), at RET and on Axl were > 10000 nM, 100 to 10000 nM and > 10 µM, respectively.

For the molecule `CNc1ncc2c(n1)N1CCN=C1C(c1cc(NC(=O)c3cc(C(F)(F)F)ccn3)ccc1F)=C2` [Compound 135, N-(4-fluoro-3-(2-(methylamino)-8,9-dihydroimidazo[1′,2′:1,6]pyrido[2,3-d]pyrimidin-6-yl)phenyl)-4-(trifluoromethyl)picolinamide], the IC50 against HPK1 (MAP4K1) is 100 to 10000 nM; on RET, < 100 nM.
